Read-outs that look alike come from different tables or passages of the source.
Columns and labels:
Format in all cases: biochemical
PDE4D = target: T1, PDE4D (Homo sapiens, UniProt Q08499); test: PDE4 IC50 determination by Scintillation Proximity Assay, PDE4D
T1 construct: PDE4D: The catalytic domain of human PDE4B from S3 16-V692; His6 (N); thrombin cleavage site (N); made in house; host or cells: E. coli
In short: (§1)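 Hydrolysis of [^3H]cAMP measured by SPA with yttrium silicate beads, which bind the [^3H]AMP product strongly and cAMP weakly. Enzyme at 80 ng/ml for PDE4B, 4 ng/ml for PDE4D; 30 min at 30°.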

[1] = target: T2, PDE4B: The catalytic domain of human PDE4B from S152-S528 (Homo sapiens, UniProt Q07343); test: PDE4 IC50 determination by Scintillation Proximity Assay, PDE4B
T2 construct: His6 (N); thrombin cleavage site (N); made in house; host or cells: E. coli
In short: as §1

[2] = target: T3, full-length human PDE4B2 isozyme (Homo sapiens, UniProt Q07343); test: PDE4 IC50 determination by Scintillation Proximity Assay, PDE4B2
T3 construct: The full-length human PDE4B2 isozyme; His6 (N); TEV cleavage site (N); made in house; host or cells: baculovirus infected insect cells (unpurified lysate)
Procedure: IC50s were determined by Scintillation Proximity Assay (SPA). The principle of the assay is based on the fact that cAMP, the PDE4 substrate, binds weakly to Yittrium Silicate SPA beads, whereas AMP, the product of PDE4 hydrolysis binds strongly. Thus, the extent of PDE4 hydrolysis of a sample of [^3H]cAMP can be measured because only the
[^3H]AMP produced by PDE4 hydrolysis will bind to the SPA beads and produce a scintillation signal.
PDE4 enzymes used for IC50 assays were:
PDE4B2: The full-length human PDE4B2 isozyme with an N-terminal His6 tag (SEQ ID NO: 18) and TEV cleavage site expressed in baculovirus infected insect cells. The enzyme was not purified from the cell lysates, so enzyme concentrations were not determined. Enzyme was stored in 50% glycerol at −20°.
Compounds tested (see Tables 3B, 4B and 5A for compounds and results) were 3-fold serially diluted 11 times in DMSO from a starting concentration of 4 mM or 40 μM, depending on compound potency. 1 μl of each dilution was transferred into duplicate wells of a white polystyrene 384-well assay plate (Coming #3705). In addition to the compound dilutions, each assay plate contained control wells with 1 μl of DMSO (to define 0% enzyme inhibition) or 1 μl of 200 μM roflumilast (to define 100% enzyme inhibition). Using a Beckman FX robot, 10 μl of [^3H] cAMP (Amersham TRK559) at 2 mCi/ml in assay buffer (50 mM Tris, pH 7.5; 8.3 mM MgCl; 1.7 mM EGTA; 0.01% BSA) was transferred to each assay well. Next, 10 μl of PDE4 enzyme in assay buffer was added and the plates were shaken for 30 s. at 1000 rpm to start the cAMP hydrolysis reaction. The concentrations of enzyme used were: PDE4B, 80 ng/ml; PDE4D, 4 ng/ml; PDE4B2, 2.5 μl of 50% glycerol stock/ml; PDE4D5 0.083 μl of 50% glycerol stock/ml. Assay plates were covered and incubated for 30 min. at 30°. Reactions were stopped by robotic addition of 10 μl of 5 mg/ml SPA beads (Amersham RPNQ0013) in 18 mM ZnSO4. The assay plates were covered with clear plastic film, centrifuged for 1 min. at 1000 RPM to settle the SPA beads, and counted using a Wallac TriLux scintillation counter. IC50's were calculated from the raw assay data by non-linear regression curve fitting using the Assay Explorer software package from MDL.

[3] = second part of Table 2B (2-23 to 2-103), column 3, column is PDE4B in first part, read-out: IC 50 vs. indicated assay h TNFα
[4] = second part of Table 2B (2-23 to 2-103), column 4, column is PDE4B2 in first part, read-out: IC 50 vs. indicated assay h TNFα
[5] = Table 3A, Formula III compounds, read-out: IC50 PDE4D
[6] = Table 3A, Formula III compounds, read-out: IC50 PDE4B

T1 sequence (Q08499 380-756): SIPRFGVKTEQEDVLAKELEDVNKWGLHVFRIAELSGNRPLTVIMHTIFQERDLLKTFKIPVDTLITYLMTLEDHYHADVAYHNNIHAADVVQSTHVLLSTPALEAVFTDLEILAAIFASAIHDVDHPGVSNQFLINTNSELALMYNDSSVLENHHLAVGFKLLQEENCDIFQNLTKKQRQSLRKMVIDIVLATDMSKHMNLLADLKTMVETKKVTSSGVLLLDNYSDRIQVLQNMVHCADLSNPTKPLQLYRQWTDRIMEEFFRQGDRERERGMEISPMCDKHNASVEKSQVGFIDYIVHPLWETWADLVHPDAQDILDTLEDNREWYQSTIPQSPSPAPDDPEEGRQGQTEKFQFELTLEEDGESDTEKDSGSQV
T2 sequence (Q07343 with tags, fused parts or gaps): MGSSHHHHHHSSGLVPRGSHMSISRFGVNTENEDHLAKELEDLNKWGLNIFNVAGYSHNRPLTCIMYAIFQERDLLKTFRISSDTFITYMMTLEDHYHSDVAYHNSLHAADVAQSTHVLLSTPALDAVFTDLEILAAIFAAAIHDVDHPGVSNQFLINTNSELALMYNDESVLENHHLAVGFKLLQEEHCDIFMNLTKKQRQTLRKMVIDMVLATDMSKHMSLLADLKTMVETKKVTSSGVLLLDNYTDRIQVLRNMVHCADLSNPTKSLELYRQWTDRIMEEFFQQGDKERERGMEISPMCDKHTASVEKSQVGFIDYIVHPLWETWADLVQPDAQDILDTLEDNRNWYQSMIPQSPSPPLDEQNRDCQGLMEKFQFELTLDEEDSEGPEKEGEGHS
T3 sequence (Q07343 1-564 isoform Q07343-2): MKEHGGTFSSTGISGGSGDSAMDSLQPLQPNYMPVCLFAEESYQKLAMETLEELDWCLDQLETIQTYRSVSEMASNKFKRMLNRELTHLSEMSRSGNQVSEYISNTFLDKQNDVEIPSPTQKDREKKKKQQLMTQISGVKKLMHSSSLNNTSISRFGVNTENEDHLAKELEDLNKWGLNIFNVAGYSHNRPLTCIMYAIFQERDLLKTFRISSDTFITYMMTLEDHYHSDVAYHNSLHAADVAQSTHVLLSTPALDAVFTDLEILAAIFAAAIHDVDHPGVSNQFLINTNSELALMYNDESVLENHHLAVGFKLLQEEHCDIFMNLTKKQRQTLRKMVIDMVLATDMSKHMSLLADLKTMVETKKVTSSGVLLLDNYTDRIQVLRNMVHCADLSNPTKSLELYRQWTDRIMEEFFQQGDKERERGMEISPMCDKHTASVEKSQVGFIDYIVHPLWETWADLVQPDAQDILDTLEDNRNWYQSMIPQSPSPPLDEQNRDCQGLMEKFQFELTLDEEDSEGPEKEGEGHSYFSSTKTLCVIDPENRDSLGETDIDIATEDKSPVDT

| Structure (SMILES) | IC50 (PDE4D; [5]) | IC50 [1, 6] | further results |
| --- | --- | --- | --- |
| N#Cc1c(Nc2ccc(C(=O)NC3CCOC3=O)cc2)sc(C(=O)c2cc(-c3ccccc3)no2)c1N (stereo not shown) [Compound 1-142, 4-[4-Amino-3-cyano-5-(3-phenyl-isoxazole-5-carbonyl)-thiophen-2-ylamino]-N-(2-oxo-tetrahydro-furan-3-yl)-benzamide] | – | – | IC50 (PDE4D; Table 1B, Formula I compounds, read-out: IC50 PDE4D): < 10 µM; IC50 ([1]; Table 1B, Formula I compounds, read-out: IC50 PDE4B): < 10 µM; IC50 ([2]; Table 1B, Formula I compounds, read-out: IC50 PDE4B2): < 10 µM |
| Nc1nc(Nc2c(Cl)cccc2Cl)sc1C(=O)c1ccccc1 [Compound 2-30, [4-Amino-2-(2,6-dichloro-phenylamino)-thiazol-5-yl]-phenyl-methanone] | – | – | IC50 (PDE4D; second part of Table 2B (2-23 to 2-103), column 5, column is PDE4D in first part, read-out: IC 50 vs. indicated assay h TNFα): < 10 µM; IC50 [1, 3]: < 10 µM; IC50 [2, 4]: < 10 µM |
| Nc1nc(Nc2ccc(Oc3ccccc3)cc2)sc1C(=O)c1ccccc1 [Compound 2-67, [4-Amino-2-(4-phenoxy-phenylamino)-thiazol-5-yl]-phenyl-methanone] | – | – | IC50 [1, 3]: < 10 µM; IC50 [2, 4]: < 10 µM |
| Cc1ccc2cccnc2c1NS(=O)(=O)c1ccc(-c2ccccn2)s1 [Compound 3-29, 5-Pyridin-2-yl-thiophene-2-sulfonic acid (7-methyl-quinolin-8-yl)-amide] | > 10 µM | > 10 µM | – |
| O=S(=O)(Nc1cccc2cccnc12)c1ccc(-c2ccccn2)s1 [Compound 3-30, 5-Pyridin-2-yl-thiophene-2-sulfonic acid quinolin-8-ylamide] | > 10 µM | > 10 µM | – |
| COc1cc(NS(=O)(=O)c2ccc(-c3ccccn3)s2)c2ncccc2c1 [Compound 3-31, 5-Pyridin-2-yl-thiophene-2-sulfonic acid (6-methoxy-quinolin-8-yl)-amide] | > 10 µM | < 10 µM | – |
| O=C(NCc1ccc(S(=O)(=O)Nc2cccc3cccnc23)s1)c1ccccc1 [Compound 3-32, N-[5-(Quinolin-8-ylsulfamoyl)-thiophen-2-ylmethyl]-benzamide] | > 10 µM | > 10 µM | – |
| Cc1nc(-c2ccc(S(=O)(=O)Nc3cccc4cccnc34)s2)cs1 [Compound 3-33, 5-(2-Methyl-thiazol-4-yl)-thiophene-2-sulfonic acid quinolin-8-ylamide] | < 10 µM | < 10 µM | – |
| O=S(=O)(Nc1cccc2cccnc12)c1ccc(-c2cnco2)s1 [Compound 3-34, 5-Oxazol-5-yl-thiophene-2-sulfonic acid quinolin-8-ylamide] | < 10 µM | < 10 µM | – |
| O=S(=O)(Nc1cccc2cccnc12)c1cc(S(=O)(=O)c2ccccc2)cs1 [Compound 3-37, 4-Benzenesulfonyl-thiophene-2-sulfonic acid quinolin-8-ylamide] | > 10 µM | > 10 µM | – |
| Cc1ccc2cccnc2c1NS(=O)(=O)c1ccc(S(=O)(=O)c2ccccc2)s1 [Compound 3-38, 5-Benzenesulfonyl-thiophene-2-sulfonic acid (7-methyl-quinolin-8-yl)-amide] | > 10 µM | > 10 µM | – |
| Cc1ccc2cccnc2c1NS(=O)(=O)c1cc(S(=O)(=O)c2ccccc2)cs1 [Compound 3-39, 4-Benzenesulfonyl-thiophene-2-sulfonic acid (7-methyl-quinolin-8-yl)-amide] | > 10 µM | > 10 µM | – |
| O=S(=O)(Nc1cccc2cccnc12)c1ccc(S(=O)(=O)c2ccccc2)s1 [Compound 3-40, 5-Benzenesulfonyl-thiophene-2-sulfonic acid quinolin-8-ylamide] | > 10 µM | > 10 µM | – |
| COc1cc(NS(=O)(=O)c2ccc(S(=O)(=O)c3ccccc3)s2)c2ncccc2c1 [Compound 3-41, 5-Benzenesulfonyl-thiophene-2-sulfonic acid (6-methoxy-quinolin-8-yl)-amide] | > 10 µM | < 10 µM | – |
| O=S(=O)(c1ccc(Br)s1)N(c1cccc2cccnc12)S(=O)(=O)c1ccc(Br)s1 [Compound 3-42] | > 10 µM | > 10 µM | – |
| COC(=O)c1ccc(S(=O)(=O)Nc2c(C)ccc3cccnc23)o1 [Compound 3-43, 5-(7-Methyl-quinolin-8-ylsulfamoyl)-furan-2-carboxylic acid methyl ester] | > 10 µM | > 10 µM | – |

| Structure (SMILES) | IC50 (PDE4D; [5]) | IC50 [1, 6] | further results |
| --- | --- | --- | --- |
| COC(=O)c1ccc(S(=O)(=O)Nc2cccc3cccnc23)o1 [Compound 3-44, 5-(Quinolin-8-ylsulfamoyl)-furan-2-carboxylic acid methyl ester] | > 10 µM | > 10 µM | – |
| COC(=O)c1ccc(S(=O)(=O)Nc2cc(OC)cc3cccnc23)o1 [Compound 3-45, 5-(6-Methoxy-quinolin-8-ylsulfamoyl)-furan-2-carboxylic acid methyl ester] | > 10 µM | > 10 µM | – |
| Cc1ccc(S(=O)(=O)Nc2cccc3cccnc23)cc1 [Compound 3-46, 4-Methyl-N-quinolin-8-yl-benzenesulfonamide] | > 10 µM | > 10 µM | – |
| Cc1ccc(S(=O)(=O)Nc2ccc(Br)c3cccnc23)cc1 [Compound 3-47, N-(5-Bromo-quinolin-8-yl)-4-methyl-benzenesulfonamide] | > 10 µM | > 10 µM | – |
| COc1cc(NS(=O)(=O)c2ccc(C)cc2)c2ncccc2c1 [Compound 3-48, N-(6-Methoxy-quinolin-8-yl)-4-methyl-benzenesulfonamide] | > 10 µM | > 10 µM | – |
| COc1cc(NS(=O)(=O)c2cc(F)ccc2C)c2ncccc2c1 [Compound 3-49, 5-Fluoro-N-(6-methoxy-quinolin-8-yl)-2-methyl-benzenesulfonamide] | > 10 µM | > 10 µM | – |
| COc1ccc(OC)c(S(=O)(=O)Nc2cc(OC)cc3cccnc23)c1 [Compound 3-51, 2,5-Dimethoxy-N-(6-methoxy-quinolin-8-yl)-benzenesulfonamide] | > 10 µM | > 10 µM | – |
| COc1cc(NS(=O)(=O)c2ccc(C#N)cc2)c2ncccc2c1 [Compound 3-52, 4-Cyano-N-(6-methoxy-quinolin-8-yl)-benzenesulfonamide] | > 10 µM | > 10 µM | – |
| COc1ccc(S(=O)(=O)Nc2cc(OC)cc3cccnc23)cc1 [Compound 3-53, 4-Methoxy-N-(6-methoxy-quinolin-8-yl)-benzenesulfonamide] | > 10 µM | > 10 µM | – |
| COc1cc(NS(=O)(=O)Cc2ccccc2)c2ncccc2c1 [Compound 3-54, N-(6-Methoxy-quinolin-8-yl)-C-phenyl-methanesulfonamide] | > 10 µM | > 10 µM | – |
| COc1cc(NS(=O)(=O)c2ccc(F)cc2)c2ncccc2c1 [Compound 3-55, 4-Fluoro-N-(6-methoxy-quinolin-8-yl)-benzenesulfonamide] | > 10 µM | > 10 µM | – |
| COc1cc(NS(=O)(=O)c2cccc(F)c2)c2ncccc2c1 [Compound 3-56, 3-Fluoro-N-(6-methoxy-quinolin-8-yl)-benzenesulfonamide] | > 10 µM | > 10 µM | – |
| COc1cc(NS(=O)(=O)c2ccccc2C)c2ncccc2c1 [Compound 3-57, N-(6-Methoxy-quinolin-8-yl)-2-methyl-benzenesulfonamide] | > 10 µM | > 10 µM | – |
| COc1cc(NS(=O)(=O)c2cc(C)ccc2OC)c2ncccc2c1 [Compound 3-58, 2-Methoxy-N-(6-methoxy-quinolin-8-yl)-5-methyl-benzenesulfonamide] | > 10 µM | > 10 µM | – |
| Cc1nccc(-c2cccc(S(=O)(=O)Nc3cccc4cccnc34)c2)n1 [Compound 3-66, 3-(2-Methyl-pyrimidin-4-yl)-N-quinolin-8-yl-benzenesulfonamide] | < 10 µM | < 10 µM | – |

Source: patent US7585859B2, “PDE4B inhibitors and uses therefor” (Plexxikon, Inc., priority 2004, dated 2009)
